Molecules are shown by their SMILES.

Broadly, the melting point is the temperature of the solid-liquid transition. With `COc1cc(OC)c(NC(=O)c2ccc(Cc3cc4c(cc3C)[Si](C)(C)C[Si]4(C)C)o2)c(OC)c1`, the melting point is 105 °C.

Values taken from patent publication US20070111967A1, “Organosilicon compounds and their use” (priority 2003, published 2007).
